Test results reported in ChEMBL document CHEMBL3046556, “Microwave-assisted synthesis and antimicrobial screening of new imidazole derivatives bearing 4-thiazolidinone nucleus” (2013).
The source made the active and inactive calls. No cut-off for these calls is given here.

Columns and labels:
Type in all cases: functional, organism-based
Streptococcus pyogenes = assay: Antibacterial activity against Streptococcus pyogenes MTCC 442 assessed as growth inhibition at 12.5 to 1000 ug/mL after 24 hr by NCCLS broth dilution method
Staphylococcus aureus = assay: Antibacterial activity against Staphylococcus aureus MTCC 96 assessed as growth inhibition at 12.5 to 1000 ug/mL after 24 hr by NCCLS broth dilution method
Pseudomonas aeruginosa = assay: Antibacterial activity against Pseudomonas aeruginosa MTCC 1688 assessed as growth inhibition at 12.5 to 1000 ug/mL after 24 hr by NCCLS broth dilution method
Escherichia coli = assay: Antibacterial activity against Escherichia coli MTCC 443 assessed as growth inhibition at 12.5 to 1000 ug/mL after 24 hr by NCCLS broth dilution method
Aspergillus clavatus = assay: Antifungal activity against Aspergillus clavatus MTCC 1323 assessed as growth inhibition at 12.5 to 1000 ug/mL after 48 hr by broth dilution method
Aspergillus niger = assay: Antifungal activity against Aspergillus niger MTCC 282 assessed as growth inhibition at 12.5 to 1000 ug/mL after 48 hr by broth dilution method
Candida albicans = assay: Antifungal activity against Candida albicans MTCC 227 assessed as growth inhibition at 12.5 to 1000 ug/mL after 48 hr by broth dilution method

CC1=N/C(=C/c2ccccc2[N+](=O)[O-])C(=O)N1c1ccc(/C(C)=N/NC(N)=S)cc1
growth inhibition (GI) (Streptococcus pyogenes): inactive | growth inhibition (GI) (Staphylococcus aureus): inactive | growth inhibition (GI) (Pseudomonas aeruginosa): inactive | growth inhibition (GI) (Escherichia coli): inactive | growth inhibition (GI) (Aspergillus clavatus): Active | growth inhibition (GI) (Aspergillus niger): Active | growth inhibition (GI) (Candida albicans): Active

CC(=O)c1ccc(N2C(=O)/C(=C\c3ccc(Cl)cc3)N=C2C)cc1
growth inhibition (GI) (Streptococcus pyogenes): inactive | growth inhibition (GI) (Staphylococcus aureus): inactive | growth inhibition (GI) (Pseudomonas aeruginosa): inactive | growth inhibition (GI) (Escherichia coli): inactive | growth inhibition (GI) (Aspergillus clavatus): inactive | growth inhibition (GI) (Aspergillus niger): inactive | growth inhibition (GI) (Candida albicans): inactive

CC1=N/C(=C/c2ccccc2Cl)C(=O)N1c1ccc(/C(C)=N/NC(N)=S)cc1
growth inhibition (GI) (Streptococcus pyogenes): inactive | growth inhibition (GI) (Staphylococcus aureus): inactive | growth inhibition (GI) (Pseudomonas aeruginosa): inactive | growth inhibition (GI) (Escherichia coli): inactive | growth inhibition (GI) (Aspergillus clavatus): Active | growth inhibition (GI) (Aspergillus niger): Active | growth inhibition (GI) (Candida albicans): Active

CC(=O)c1ccc(N2C(=O)/C(=C\c3ccccc3[N+](=O)[O-])N=C2C)cc1
growth inhibition (GI) (Streptococcus pyogenes): inactive | growth inhibition (GI) (Staphylococcus aureus): inactive | growth inhibition (GI) (Pseudomonas aeruginosa): inactive | growth inhibition (GI) (Escherichia coli): inactive | growth inhibition (GI) (Aspergillus clavatus): inactive | growth inhibition (GI) (Aspergillus niger): inactive | growth inhibition (GI) (Candida albicans): inactive

CC(=O)c1ccc(N2C(=O)/C(=C\c3ccccc3F)N=C2C)cc1
growth inhibition (GI) (Streptococcus pyogenes): inactive | growth inhibition (GI) (Staphylococcus aureus): inactive | growth inhibition (GI) (Pseudomonas aeruginosa): inactive | growth inhibition (GI) (Escherichia coli): inactive | growth inhibition (GI) (Aspergillus clavatus): inactive | growth inhibition (GI) (Aspergillus niger): inactive | growth inhibition (GI) (Candida albicans): inactive

CC1=N/C(=C/c2ccc([N+](=O)[O-])cc2)C(=O)N1c1ccc(/C(C)=N/NC(N)=S)cc1
growth inhibition (GI) (Streptococcus pyogenes): inactive | growth inhibition (GI) (Staphylococcus aureus): inactive | growth inhibition (GI) (Pseudomonas aeruginosa): inactive | growth inhibition (GI) (Escherichia coli): inactive | growth inhibition (GI) (Aspergillus clavatus): Active | growth inhibition (GI) (Aspergillus niger): Active | growth inhibition (GI) (Candida albicans): Active

CC1=N/C(=C/c2ccccc2)C(=O)N1c1ccc(/C(C)=N/NC(N)=S)cc1
growth inhibition (GI) (Streptococcus pyogenes): inactive | growth inhibition (GI) (Staphylococcus aureus): inactive | growth inhibition (GI) (Pseudomonas aeruginosa): inactive | growth inhibition (GI) (Escherichia coli): inactive | growth inhibition (GI) (Aspergillus clavatus): Active | growth inhibition (GI) (Aspergillus niger): Active | growth inhibition (GI) (Candida albicans): Active

CC1=N/C(=C/c2ccccc2C)C(=O)N1c1ccc(/C(C)=N/NC(N)=S)cc1
growth inhibition (GI) (Streptococcus pyogenes): inactive | growth inhibition (GI) (Staphylococcus aureus): inactive | growth inhibition (GI) (Pseudomonas aeruginosa): inactive | growth inhibition (GI) (Escherichia coli): inactive | growth inhibition (GI) (Aspergillus clavatus): Active | growth inhibition (GI) (Aspergillus niger): Active | growth inhibition (GI) (Candida albicans): Active

CC(=O)c1ccc(N2C(=O)/C(=C\c3ccccc3Cl)N=C2C)cc1
growth inhibition (GI) (Streptococcus pyogenes): inactive | growth inhibition (GI) (Staphylococcus aureus): inactive | growth inhibition (GI) (Pseudomonas aeruginosa): inactive | growth inhibition (GI) (Escherichia coli): inactive | growth inhibition (GI) (Aspergillus clavatus): inactive | growth inhibition (GI) (Aspergillus niger): inactive | growth inhibition (GI) (Candida albicans): inactive

CC(=O)c1ccc(N2C(=O)/C(=C\c3ccccc3C)N=C2C)cc1
growth inhibition (GI) (Streptococcus pyogenes): inactive | growth inhibition (GI) (Staphylococcus aureus): inactive | growth inhibition (GI) (Pseudomonas aeruginosa): inactive | growth inhibition (GI) (Escherichia coli): inactive | growth inhibition (GI) (Aspergillus clavatus): inactive | growth inhibition (GI) (Aspergillus niger): inactive | growth inhibition (GI) (Candida albicans): inactive

CC(=O)c1ccc(N2C(=O)/C(=C\c3cccc(C)c3)N=C2C)cc1
growth inhibition (GI) (Streptococcus pyogenes): inactive | growth inhibition (GI) (Staphylococcus aureus): inactive | growth inhibition (GI) (Pseudomonas aeruginosa): inactive | growth inhibition (GI) (Escherichia coli): inactive | growth inhibition (GI) (Aspergillus clavatus): inactive | growth inhibition (GI) (Aspergillus niger): inactive | growth inhibition (GI) (Candida albicans): inactive
